Data taken from publication PMC13183915, “A platinum butterfly effect: small changes turn an anticancer drug into a non-toxic metalloantibiotic with in vivo efficacy” (npj Antimicrobials and Resistance, 2026).
Values joined by “and” are separate entries in the source; they are usually repeats but may differ in a detail not shown here. Equal values may be shown once.

Legend:
[1] = system: K. pneumoniae BAA 1705; test: Broth microdilution MIC, K. pneumoniae BAA 1705; assay type: cell-based, Klebsiella pneumoniae
Protocol: (§1) The data is given in supporting information (Table S5). Before starting the experiment, a single colony was picked from MHA plate, inoculated in MHBII and incubated overnight at 37 °C with shaking for 18–24 h to get the starter culture. Antibiotic susceptibility testing was conducted according to the CLSI (Clinical & Laboratory Standards Institute) guidelines using the broth microdilution assay. 10 mg/mL stock solutions of test compounds were prepared in DMSO. Bacterial cultures were inoculated in MHBII and optical density (OD) was measured at 600 nm, followed by dilution to achieve ~10^6 CFU/mL. The compounds were tested from 64 to 0.5 mg/L in two-fold serial diluted fashion with 2.5 μL of each concentration added to well of a 96-well round bottom microtiter plate. Later, 97.5 μL of bacterial suspension was added to each well containing either test compound or appropriate controls. […] The MIC is defined as the lowest concentration of the compound at which there is absence of visible growth. For each test compound, MIC determinations were carried out independently three times using duplicate samples.

[2] = system: MRSA NRS 186; test: Broth microdilution MIC, MRSA NRS 186; assay type: cell-based, S. aureus; settings: MRSA NRS 186
Protocol: as §1

[3] = system: B. subtilis 168CA; test: DiSC3(5)-based membrane potential measurement; assay type: cell-based, Bacillus subtilis; settings: 3.125 µM Pt1, 25 µM Pt8
Protocol: The membrane potential was measured according to Winkel et al. with minor modifications. B. subtilis 168CA was grown in LB containing 50 µg/mL bovine serum albumin (BSA). Cells were transferred to black 96-well polystyrene microtiter plates after reaching an OD600 of 0.3. DiSC3(5) was added to a final concentration of 1 µM, maintaining a constant concentration of 1% DMSO to avoid precipitation of the dye. After the fluorescence baseline had stabilized, antibiotic compounds were added, and measurements were continued for 30 min. Fluorescence was recorded at an excitation wavelength of 610–30 nm and an emission wavelength of 675–50 nm in a BMG Clariostar Plus plate reader.

[4] = system: human red blood cells (RBC); test: Hemolysis assay in hRBCs; assay type: cell-based; settings: 4 hours at 20 °C
[5] = system: methicillin-resistant S. aureus (MRSA) COL; test: MIC assay, MRSA COL; assay type: cell-based, Staphylococcus aureus; settings: MRSA COL
[6] = system: B. subtilis 168CA; test: ROS scavenger assay (modified MIC assay); assay type: cell-based, Bacillus subtilis
Protocol: LB media were prepared to contain either 10 mM tiron, 150 mM thiourea, 10 mM tiron and 150 mM thiourea, or no […]. Serial two-fold dilutions of the different antibiotics were prepared in the respective media and transferred to 96-well plates. […] The OD600 was meassured in a BMG Clariostar Plus plate reader.

[7] = parameters: method as in PMID 34018686; settings: cited from earlier work
[8] = system: E. coli (NCTC 13476); test: MIC, E. coli NCTC 13476 (with or without PMBN); assay type: cell-based; settings: E. coli NCTC 13476 + 10 µg/mL PMBN (polymyxin B nonapeptide)
[9] = system: MRSA NRS 191; test: Broth microdilution MIC, MRSA NRS 191; assay type: cell-based, S. aureus; settings: MRSA NRS 191
Protocol: as §1

[10] = system: MreB (B. subtilis MW10, Pxyl-gfp-mreB); test: MreB mobility (cell wall synthesis reporter); assay type: cell-based, Bacillus subtilis; settings: 3.12 µM Pt1, 25 µM Pt8; 30 and 60 min
Protocol: B. subtilis strains were grown in LB containing appropriate inducer concentrations as specified in Table S10. After reaching an OD600 of 0.3, cultures were split and treated with antibiotics. Samples were withdrawn after 30 and 60 min of treatment, spotted on glass slides covered with 1% agarose films, and immediately imaged.
Figure S7: Fluorescence overlays of B. subtilis MW10 (Pxyl-gfp-mreB). Cultures were treated […]
overlays of two consecutive images captured from the same cells in a 30-second interval.
Images were false-colored in blue and orange with overlapping signal appearing white. Distinct blue and orange spots indicate movement of MreB foci. Entirely white images indicate a stop of MreB moility (vancomycin control). Scale bar 2 µm.
(§2) (1 picture or pasted object on this page, not shown here)

[11] = system: GFP-MinD expression (B. subtilis TB35); test: Translation inhibition assay (inducible GFP-MinD expression); assay type: cell-based, Bacillus subtilis; settings: 3.125 µM Pt1, 25 µM Pt8; 60 min
Protocol: B. subtilis strain TB35 (Pxyl-minD-gfp) was grown in LB without inducer. After reaching an OD600 of 0.3, antibiotics and inducer (0.1% xylose) were added consecutively. Samples were withdrawn for microscopy after 60 min of treatment, spotted on glass slides covered with 1% agarose films, and imaged without delay.
Figure S11: MinD translation induction assay. TB35 (Pxyl-minD-gfp) was grown without xylose, thus not expressing GFP -MinD. […]
chloramphenicol (CHL). Images were taken after 60 min of induction/treatment. Scale bar 2 […]
as §2

[12] = system: 36th Passage S.aureus ATCC 29213 in the presence of Pt-1; test: microbe, parasite or virus in culture; assay type: cell-based; settings: strain resulting from 36 passages
Protocol: The MICs of the passaged cultures were determined every 3 days and compared to that of wild type S. aureus ATCC 29213. MIC changes were recorded for 36 passages.

C1=C\CC/C=C\CC/1.[Cl][Pt][Cl] [Pt1]
MIC [1]: > 64 µg/mL | MIC [2]: 0.125 – 0.25 µg/mL and 0.33–0.67 µM | membrane depolarization (DiSC(3)5) [3]: no membrane depolarization could be observed | HC50 [4]: >200 µM | MIC [5]: 3.125 µM | MIC fold change (increase) with scavenger ([6]; medium containing 150 mM thiourea (hydroxyl radical scavenger)): tenfold | MIC fold change (increase) with scavengers ([6]; medium containing both tiron and thiourea): 13 fold | antibacterial activity in human serum [7]: lost its antibacterial activity completely | MIC [8]: > 100 µM | MIC [9]: 0.25 µg/mL and 0.67 µM | MreB mobility [10]: neither Pt1 nor Pt8 affected MreB mobility | GFP-MinD expression after xylose induction [11]: No differences in GFP-MinD expression were observed | cross-resistance to other antibiotics [12]: no cross-resistance was observed
